Counter-ions that a name gives are not always drawn. Marks after values point to notes of the source that are not given here.
What was measured:
Assay type in all cases: in vivo
[1] = tested on: castor-oil induced diarrhea; assay: castor oil induced diarrhea in rats; conditions: reference drug 5.0 mg/kg p.o., 2 mL castor oil after 60 min, observed 4 h
Method: The efficacy of composition as an antidiarrheal agent was evaluated using castor oil induced diarrhea. The castor oil model has been an extensively used pharmacological test to screen and evaluate antidiarrheal properties of drugs in rats. The liberation of ricinoleic acid from castor oil results in irritation and inflammation of intestinal mucosa, leading to release of prostaglandins, which stimulates motility and secretion (Pierce, N. F., Carpenter. C. C. J., Elliiot, H. Z. and Greenough, W. B., Effects of prostaglandins, Theophylline and cholera exotoxin upon transmucosalwater and electrolyte movement in canine jejunum, Gastroenterology, 1971; 60: 22-32). Castor oil is also reported to induce diarrhea by increasing the volume of intestinal content by prevention of the reabsorption of water. […] After 60 min each animal was given with 2 mL of castor oil by orogastric cannula, and placed in a separate cage and observed for 4 h defecation the characteristic diarrheal droppings were noted and recorded.
The castor oil model has been an extensively used pharmacological test to screen and evaluate antidiarrheal properties of drugs in rats. […] After 60 min each animal was given with 2 mL of castor oil by orogastric cannula, and placed in a separate cage and observed for 4 h defecation the characteristic diarrheal droppings were noted and recorded.

ethanol induced ulcers = ethanol induced ulcers in rats; conditions: EtOH 1 ml/200 g, positive control, dose given as 50, mean ± SEM, six rats
Method: Further, effect of the composition was evaluated using ethanolinduced ulcer model. […] The ulcer index was scored, based upon the product of length and width of the ulcers present in the glandular portion of the stomach (mm^2/rat).
The ulcer index was scored, based upon the product of length and width of the ulcers present in the glandular portion of the stomach (mm^2/rat).

[2] = tested on: pylorus ligation induced ulcers; assay: pylorus ligation (PL) induced ulcers in rats; conditions: positive control, dose given as 50, mean ± SEM, six rats
Method: The effect of the composition as an antiulcer agent was further justified using pylorus ligation (PL)-induced ulcer model. […] The mentioned drugs were administered for a period of 5 days as described above and the rats were kept for 18 h fasting and care was taken to avoid coprophagy. Animals were anaesthetized and the abdomen was opened and pylorus ligation was done without causing any damage to its blood supply. After 4 h, stomachs were dissected out and cut open along the greater curvature and ulcers were scored in the glandular portion of the stomach as mentioned in aspirin induced ulcers.
The effect of the composition as an antiulcer agent was further justified using pylorus ligation (PL)-induced ulcer model.
The mentioned drugs were administered for a period of 5 days as described above and the rats were kept for 18 h fasting and care was taken to avoid coprophagy. Animals were anaesthetized and the abdomen was opened and pylorus ligation was done without causing any damage to its blood supply. After 4 h, stomachs were dissected out and cut open along the greater curvature and ulcers were scored in the glandular portion of the stomach as mentioned in aspirin induced ulcers.

aspirin induced ulcers = aspirin induced ulcers in rats; conditions: aspirin 200 mg/kg, positive control, dose given as 50, mean ± SEM, six rats
Method: The effect of the composition on ulcers was evaluated using aspirin induced ulcer model. […] Ulcers were scored after 4 h. The animals were sacrificed and the stomach was then excised and cut along the greater curvature, washed carefully with 5.0 ml of 0.9% NaCl and ulcers were scored in the glandular portion of the stomach. Ulcer index was calculated by adding the total number of ulcers per stomach and the total severity of ulcers per stomach.
The effect of the composition on ulcers was evaluated using aspirin induced ulcer model.

[3] = tested on: cold restrained stress (CRS) induced ulcers; assay: cold restrained stress (CRS) induced ulcers in rats; conditions: positive control, dose given as 50, mean ± SEM, six rats
Method: The effect of composition was further observed on cold resistant stress model of ulcer. […] Rats were starved for 48 hours, and the drinking solution was removed 1 hour before starting experiments. For cold-restraint s tress, the rats were restrained in individual close-fitting tubular wire-mesh cages at 4° C. […] At the end of 2 hours, all the rats were sacrificed. The ulcer index was scored, based upon the product of length and width of the ulcers present in the glandular portion of the stomach (mm^2/rat).
The effect of composition was further observed on cold resistant stress model of ulcer. […] Rats were starved for 48 hours, and the drinking solution was removed 1 hour before starting experiments. For cold-restraint stress, the rats were restrained in individual close-fitting tubular wire-mesh cages at 4° C.

| SMILES | Total number of faecal matter [1] | Ulcer Index (ethanol induced ulcers) | Ulcer Index [2] | Ulcer Index (aspirin induced ulcers) | Ulcer Index [3] |
| --- | --- | --- | --- | --- | --- |
| CCOC(=O)C1(c2ccccc2)CCN(CCC(C#N)(c2ccccc2)c2ccccc2)CC1 [DiphenoxylateHCl, diphenoxylate HCl] | 19 | – | – | – | – |
| CNC(=C[N+](=O)[O-])NCCSCc1ccc(CN(C)C)o1 [Ranitidine, ranitidine] | – | 10.3 ± 2.8^a mm^2/rat | 4.9 ± 1.3^b | 7.6 ± 1.4^a | 6.9 ± 1.0^c mm^2/rat |

From US10076550B2, “Synergistic pharmaceutical composition for gastroinestinal disorders” (COUNCIL OF SCIENTIFIC & INDUSTRIAL RESEARCH, priority 2014, dated 2018)
